Data set [1] concerns NAADP binding protein from sea urchin (L. pictus) egg homogenate. Briefly: NAADP radioreceptor binding assay (displacement of [32P]NAADP). On the set-up: species or system Lytechinus pictus. Particulars: for IC50: read-out: IC50 (displacement of [32P]NAADP binding), 1% sea urchin egg homogenate, 25 °C. On the procedure:
First, 25 μl of test sample was added to each tube. Second, 125 μl of 1% (v/v) sea urchin egg homogenate in intracellular medium was added and allowed to incubate for 10 min at 25 °C. […] The tubes were then incubated at room temperature for a further 10 min at 25 °C. Note that the order of addition is important to maximize the sensitivity of the assay. […] Washing was carried out three times using 1 ml of a buffer containing 20 mM Hepes and 500 mM potassium acetate (pH 7.4).
Radioactivity was determined by placing the filter circles in a scintillation vial containing 10 ml H2O, followed by Cerenkov scintillation counting.
Filter papers were wrapped in cling film and then placed in a cassette to expose a storage phosphor screen (GE Healthcare) for 1 to 4 h. The screen was then scanned using a Typhoon 9400 scanner (GE Healthcare) at a resolution of 100 μm. The resulting image was then analyzed using ImageQuant (GE Healthcare).
Samples are then filtered using a cell harvester. […] Sample concentrations may then be determined from the standard curve.

The next data set relates to pancreatic acinar cells. The experiment in a line: NAADP levels in pancreatic acinar cells preincubated with BAPTA-AM. Format: cell-based, CD1 mice. On the procedure: Cells may be prepared in any suitable manner; gametes, isolated cells, chopped tissue, and cells in culture all have been used successfully. Cells were then exposed to agonist, and at the appropriate time points the reaction in cells was stopped by the addition of 0.75 M ice-cold HClO4 added as an equal volume of 1.5 M solution. Sonication (Jencons Vibracell at amplitude 60) was carried out to disrupt the cells, which were then placed on ice for 15 min. The denatured protein was pelleted by centrifugation at 9000g for 10 min and stored at –80 °C for later analysis. Supernatant was neutralized with 1 M KHCO3, added as an equal volume of 2 M solution, and vortexed. The resulting KClO4 precipitate was removed by centifugation at 9000g for 10 min. Samples were stored at –80 °C for later analysis.
Pancreatic acinar cells were prepared as described previously. Briefly, pancreata were excised from 8- to 10-week-old male CD1 mice and were finely chopped before incubation with 200 U/ml collagenase for 15 min at 37 °C. The digested tissue was then washed and resuspended to 10 ml with buffer of the following composition: 140 mM NaCl, 4.7 mM KCl, 1 mM MgCl2, 1 mM CaCl2, 10 mM Hepes, and 10 mM glucose (pH 7.4). Protease inhibitor cocktail tablets (EDTA free, Roche Diagnostics, UK), one tablet per 50 ml, were added to this solution before use. The suspension was triturated, and supernatant that contained dispersed cells was collected into a new tube. After centrifugation at 800g for 3 min at 4 °C, the supernatant was discarded and the cell pellet was resuspended for further trituration and centrifugation. The resulting supernatant was discarded, and the cells were kept in buffer supplemented with 1 mM CaCl2 at room temperature on a rocking board for 30 min before use. Prior to use, the cells were centrifuged at 800g for 1 min at 4 °C. The cells were suspended in the above buffer without the addition of protease inhibitors. Pancreatic acinar cells were aliquoted into tubes. […]

For another data set, the system named is human NAD kinase. More on the design: method as in PMID 11594753. Particulars: cited from earlier work.
Data set [2] is described as follows: Stability of nucleotides under different pH conditions (HPLC). As to conditions: 1 mM, 6 h. Format: physicochemical. Here is the method:
All high-performance liquid chromatography (HPLC) was carried out on an anion exchange resin (AGMP1, Bio-Rad, USA), packed in 150 × 2.5-mm Omnifit columns, using a concave upward gradient of trifluoroacetic acid (TFA), delivered by a Waters 600e pump, as described previously. Detection was performed by a UV detector (Waters 2487, UK) at 254 nm.
Samples were then neutralized with their base equivalence of either Tris base (for acidic solutions) or Hepes acid (for basic solutions) as applicable. Samples were analyzed by HPLC as described above, with elution times being determined from standard runs with known compounds.

Setting [3] is: maximum concentration tested 100 μM.
The mark [4] stands for this setting: maximum concentration tested 2 mM.
Where [5] appears, read: 100 pM CCK after preincubation with 20 μM BAPTA-AM.

Turning to `O=C(O)c1cccnc1` [nicotinic acid], the “Displacement of NAADP at the maximum concentration tested” value (“Displacement of NAADP” for short) in data set [1] (setting [3]) is listed as “failed to displace”.
Same read-out and setting: to `Nc1ncnc2c1ncn2[C@@H]1O[C@H](COP(=O)(O)OP(=O)(O)OC[C@H]2OC(O)[C@H](O)[C@@H]2O)[C@@H](O)[C@H]1O` (stereo partly shown) [ADPR] belongs “failed to displace”.
As for `NC(=O)C1=CN([C@@H]2O[C@H](COP(=O)(O)OP(=O)(O)OC[C@H]3O[C@@H](n4cnc5c(N)ncnc54)[C@H](O)[C@@H]3O)[C@@H](O)[C@H]2O)C=CC1` [NADH], the “Displacement of NAADP” value in data set [1] (setting [4]) is “failed to displace”.
On to `Nc1ncnc2c1ncn2[C@@H]1O[C@H](COP(=O)(O)OP(=O)(O)OP(=O)(O)O)[C@@H](O)[C@H]1O` [ATP], for which, in data set [1] (setting [3]), the “Displacement of NAADP” value was “failed to displace”.
The IC50 is the concentration that gives 50% inhibition. Turning to `Nc1ncnc2c1ncn2[C@@H]1O[C@H](COP(=O)(O)OP(=O)(O)OC[C@H]2O[C@@H]([n+]3cccc(C(=O)O)c3)[C@H](O)[C@@H]2O)[C@@H](O)[C@H]1O` [NAAD, nicotinic acid adenine dinucleotide], the IC50 in data set [1] is 51 µM.
For the compound `N=c1c2ncn3c2ncn1[C@@H]1O[C@H](COP(=O)(O)OP(=O)(O)OC[C@H]2O[C@@H]3[C@H](O)[C@@H]2O)[C@@H](O)[C@H]1O` [cADPR, cyclic ADP ribose], in data set [1], the IC50 was 2.5 µM.
As for `CC(=O)OCOC(=O)CN(CC(=O)OCOC(C)=O)c1ccccc1OCCOc1ccccc1N(CC(=O)OCOC(C)=O)CC(=O)OCOC(C)=O` [BAPTA-AM, 1,2-bis(2-aminophenoxy)ethane-N,N,N′,N′-tetraacetic acid tetrakis (acetoxymethyl) ester], the “Change in NAADP levels” value with pancreatic acinar cells (20 μM BAPTA-AM alone, followed by control buffer) is listed as “no change”.
Regarding cholecystokinin [CCK], in the data set with pancreatic acinar cells (setting [5]), the “Change in NAADP levels” value is given as “continuous increase” and the “Duration of increase in NAADP levels” value is recorded as “at least 20 min”.
On to “nicotinamide adenine dinucleotide phosphate [NADP]”, for which the IC50 in data set [1] came to 21 µM.
The term Km denotes the substrate concentration at which the rate is half of its maximum. With `NC(=O)c1ccc[n+]([C@@H]2O[C@H](COP(=O)([O-])OP(=O)(O)OC[C@H]3O[C@@H](n4cnc5c(N)ncnc54)[C@H](O)[C@@H]3O)[C@@H](O)[C@H]2O)c1` [NAD, nicotinamide adenine dinucleotide], in data set [1] (setting [4]), the “Displacement of NAADP” value is recorded as “failed to displace”. Moreover, in the data set on human NAD kinase, the Km is 800 µM.
Turning to `Nc1ncnc2c1ncn2[C@@H]1O[C@H](COP(=O)(O)O)[C@@H](O)[C@H]1O` [AMP], in data set [1] (setting [3]), the “Displacement of NAADP” value was “failed to displace”.
On to `NC(=O)C1=CN([C@@H]2O[C@H](COP(=O)(O)OP(=O)(O)OC[C@H]3O[C@@H](n4cnc5c(N)ncnc54)[C@H](OP(=O)(O)O)[C@@H]3O)[C@@H](O)[C@H]2O)C=CC1` [NADPH], for which, in data set [1], the IC50 was determined as 6.3 µM. The “Stability at pH 7.2” value in data set [2] (50 mM Hepes (pH 7.2)) is on record as “remained stable”. The “Stability at pH 0.88” value in data set [2] (0.75 M HClO4 (pH 0.88)) was “became unstable”. Moreover, the “Stability at pH 8.6” value in data set [2] (0.75 M HClO4/1 M KHCO3 (pH 8.6)) is on record as “became unstable”. For the same compound, in data set [2] (1 M K2CO3 (pH 11)), the “Stability at pH 11” value is on record as “similarly unstable”. Besides, the “Stability at pH 9.1” value in data set [2] (1 M KHCO3 (pH 9.1)) was “became unstable”.
As to `Nc1ncnc2c1ncn2[C@@H]1O[C@H](COP(=O)(O)OP(=O)(O)O)[C@@H](O)[C@H]1O` [ADP], the “Displacement of NAADP” value in data set [1] (setting [3]) is “failed to displace”.
As for `O=P(O)(O)O[C@@H]1[C@H](O)[C@H](O)[C@@H](OP(=O)(O)O)[C@H](OP(=O)(O)O)[C@H]1O` [IP3, D-myo-inositol 1,4,5-trisphosphate], the “Displacement of NAADP” value in data set [1] (setting [3]) is “failed to displace”.
With “nicotinic acid adenine dinucleotide phosphate [NAADP]”, the IC50 in data set [1] amounted to 0.00054 µM.

The record behind these values is article PMC2518627 (Analytical Biochemistry, 2007).
